# How the values were obtained:
# [1] = Storage stability: loss of ability of aqueous solutions to generate carbon disulfide upon contact with strong acid; format: physicochemical; settings: aqueous solutions of tetrathiocarbonate salts, about 14 to about 16 percent by weight carbon disulfide equivalent, air-tight glass containers, 49° C.
# Method: Various tetrathiocarbonate salts are evaluated for storage stability by measuring the loss of the ability of aqueous solutions thereof to generate carbon disulfide upon contact with strong acid. Aqueous solutions of the salts listed in the following table, having an equivalent of from about 14 to about 16 percent by weight carbon disulfide, are stored in air-tight glass containers at a temperature of 49° C.
# Fusarium oxysporum = experiment: Fungicidal test, radial growth of mycelia colonies; format: cell-based
# Method: (§1) Thiocarbonate solutions are used in a test of their fungicidal properties. Cultures of four plant pathogenic fungi are grown upon potato dextrose agar at room temperature, in diffuse natural lighting. After one week, square blocks having 2 millimeter sides are cut from the edges of actively growing mycelia spots on the agar.
# (§2) The blocks are immersed in sterile deionized water, as a control, or in dilutions of thiocarbonate solutions using the sterile water, in a closed container. Subsequently, the blocks are removed and placed upon agar in clean plates, and mycelia are allowed to grow for one week.
# (§3) Radial growth of mycelia colonies is measured for each of the six to eight replicate plates used for a particular fungus, and average colony radius is calculated. Percent control is defined by the following equation: Percent control =[1-((Average radius of treated plates)/(Average radius of control plates))]x100 [formula]
# (§4) Concentrations given for solutions used to treat the agar blocks are expressed in grams of thiocarbonate solution per liter of diluted solution.
# Phytophthora cinnamomi = experiment: Fungicidal test, radial growth of mycelia colonies; format: cell-based
# Method: as §1, §2, §3, §4
# Sclerotium rolfsii = experiment: Fungicidal test, radial growth of mycelia colonies; format: cell-based
# Method: as §1, §2, §3, §4
# Verticillium dahliae = experiment: Fungicidal test, radial growth of mycelia colonies; format: cell-based
# Method: as §1, §2, §3, §4
# [2] = tested on: root-knot nematode larvae (Meloidogyne incognita); experiment: Greenhouse nematocide experiment with tomato plants, soil drench, root gall count; format: in vivo; settings: 30 days; for Gall Counts, replicate 3: control 1; for Gall Counts, Mean: control 4.0; for Gall Counts, replicate 2: control 7; for Gall Counts, replicate 1: control 4
# Method: In the experiment, thirty containers are used, each containing about 500 grams of sterilized sandy loam soil. Each container contains one tomato plant. Each container is injected with four 5-milliliter portions of extract from nematode-infested pepper roots, one inch below the soil surface, producing an initial population of 2000 root-knot nematode larvae (Meloidogyne incognita) per container.
# Ten treatments are replicated three times, each treatment consisting of drenching the soil with a solution containing the fumigant to provide the dosage of CS2 given in the following table. The solutions are diluted with sufficient water to saturate the soil. The treatments include calcium tetrathiocarbonate, stabilized ammonium tetrathiocarbonate, and carbon disulfide at three levels, plus an untreated control. After drenching, each container is allowed to stand at ambient conditions. The plants are harvested after 30 days of growth, and soil is removed from the roots by a gentle washing with water. By use of a magnifying glass, the number of root galls is counted on each plant.
# Results are summarized below, wherein the "Application" represents milligrams of treatment per kilogram of soil, calculated as the thiocarbonate salt and the equivalent carbon disulfide. Gall counts are mean values from the three replicates.
# [3] = Effect of pH on production of CS2 from thiocarbonates in citrate-phosphate buffers, gas chromatography of air; format: physicochemical
# Method: Pure carbon disulfide is also injected, for comparison. A syringe is used to periodically sample air in the bottle, and the air is analyzed by gas chromatography.
# [4] = Decomposition in sandy loam soil at different moisture, CS2 in air space by gas chromatography; format: physicochemical; settings: hours to maximum CS2 concentration in the air space
# Method: A sandy loam soil is placed in 1-liter glass bottles, fitted with stoppers having fluorocarbon liners and silicone rubber septa, to give a soil depth of about 4 cm. […] Thiocarbonate solution or carbon disulfide is injected near the bottom of the soil layer, the bottles are promptly sealed, and the air space in the bottles is sampled at intervals with a syringe, for gas chromatographic analysis of CS2. Results are summarized below, wherein degradation time is the number of hours required to achieve the maximum CS2 concentration in the air space.
# [5] = 100 g/l thiocarbonate solution per liter of diluted solution
# [6] = highest application: 638/89 ppm ((NH4)2CS4·(NH4)2S), 730/91 (CaCS4), 97 ppm (CS2)
# [7] = lowest application: 213/30 ppm ((NH4)2CS4·(NH4)2S), 245/31 (CaCS4), 32 ppm (CS2)
# [8] = middle application: 425/60 ppm ((NH4)2CS4·(NH4)2S), 490/61 (CaCS4), 65 ppm (CS2)
compound,measurement,setting,value
"S=C(S)SS [NH4^+, ammonium tetrathiocarbonate]",Half-life (months),[1],0.17 months
"S=C(S)SS [Na2CS4 (10.6%CS2), sodium tetrathiocarbonate]",Half-life (months),[1]; listed as Na^+,3.0 months
same,Percent Control Fusarium oxysporum,Fusarium oxysporum; 1 g/l,4%
same,Percent Control Fusarium oxysporum,Fusarium oxysporum; 10 g/l,6%
same,Percent Control Fusarium oxysporum,Fusarium oxysporum; [5],100%
same,Percent Control Phytophthora cinnamomi,Phytophthora cinnamomi; 10 g/l,37%
same,inhibition of growth at 100000 µg/mL,"Phytophthora cinnamomi; Phytophthora cinnamomi, 168 h, 100 g/l, read-out: Percent Control Phytophthora cinnamomi",100%
same,Percent Control Sclerotium rolfsii,Sclerotium rolfsii; 10 g/l,100%
same,inhibition of growth at 100000 µg/mL,"Sclerotium rolfsii; Agroathelia rolfsii, 168 h, 100 g/l, read-out: Percent Control Sclerotium rolfsii",100%
same,Percent Control Verticillium dahliae,Verticillium dahliae; 1 g/l,23%
same,inhibition of growth,"Verticillium dahliae; Verticillium dahliae, 168 h, 10 g/l, read-out: Percent Control Verticillium dahliae",26%
same,inhibition of growth at 100000 µg/mL,"Verticillium dahliae; Verticillium dahliae, 168 h, 100 g/l, read-out: Percent Control Verticillium dahliae",100%
stabilized ammonium tetrathiocarbonate [(NH4)2CS4·(NH4)2S],"Gall Counts, replicate 3",[2]; [6],2
same,"Gall Counts, Mean",[2]; [6],4.3
same,"Gall Counts, replicate 2",[2]; [6],5
same,"Gall Counts, replicate 1","[2]; highest application: 638 ppm salt/89 ppm Eq. CS2 ((NH4)2CS4·(NH4)2S), 730/91 (CaCS4), 97 ppm (CS2)",6
same,"Gall Counts, replicate 3",[2]; [7],3
same,"Gall Counts, Mean",[2]; [7],5.0
same,"Gall Counts, replicate 2",[2]; [7],7
same,"Gall Counts, replicate 1","[2]; lowest application: 213 ppm salt/30 ppm Eq. CS2 ((NH4)2CS4·(NH4)2S), 245/31 (CaCS4), 32 ppm (CS2)",5
same,"Gall Counts, replicate 3",[2]; [8],6
same,"Gall Counts, Mean",[2]; [8],10.0
same,"Gall Counts, replicate 2",[2]; [8],15
same,"Gall Counts, replicate 1","[2]; middle application: 425 ppm salt/60 ppm Eq. CS2 ((NH4)2CS4·(NH4)2S), 490/61 (CaCS4), 65 ppm (CS2)",9
same,Half-life (minutes) for production of carbon disulfide,"[3]; pH 5.2, 125 milligrams per liter of thiocarbonate ion",1 min
same,Half-life (minutes) for production of carbon disulfide,"[3]; pH 6.0, 125 milligrams per liter of thiocarbonate ion",1 min
same,Half-life (minutes) for production of carbon disulfide,"[3]; pH 7.0, 125 milligrams per liter of thiocarbonate ion",2.1 min
same,Half-life (minutes) for production of carbon disulfide,"[3]; pH 8.0, 125 milligrams per liter of thiocarbonate ion, CaCS4 values above pH 7 called unreliable",9.2 min
same,Half-life (minutes) for production of carbon disulfide,"[3]; pH 9.0, 125 milligrams per liter of thiocarbonate ion, CaCS4 values above pH 7 called unreliable",26.1 min
same,Percent Control Fusarium oxysporum,Fusarium oxysporum; 1 g/l,70%
same,Percent Control Fusarium oxysporum,Fusarium oxysporum; 10 g/l,100%
same,Percent Control Fusarium oxysporum,Fusarium oxysporum; [5],100%
same,Percent Control Phytophthora cinnamomi,Phytophthora cinnamomi; 1 g/l,97%
same,Percent Control Phytophthora cinnamomi,Phytophthora cinnamomi; 10 g/l,74%
same,Percent Control Phytophthora cinnamomi,Phytophthora cinnamomi; 100 g/l,100%
same,Percent Control Sclerotium rolfsii,Sclerotium rolfsii; 1 g/l,49%
same,Percent Control Sclerotium rolfsii,Sclerotium rolfsii; 10 g/l,93%
same,Percent Control Sclerotium rolfsii,Sclerotium rolfsii; 100 g/l,100%
same,Percent Control Verticillium dahliae,Verticillium dahliae; 1 g/l,41%
same,Percent Control Verticillium dahliae,Verticillium dahliae; 10 g/l,81%
same,Percent Control Verticillium dahliae,Verticillium dahliae; 100 g/l,91%
same,Degradation Time,[4]; Soil Moisture 0 % of Saturation,2 h
same,Degradation Time,[4]; Soil Moisture 50 % of Saturation,3 h
same,Degradation Time,[4]; Soil Moisture 100 % of Saturation,48 h

# — patent publication EP0337503B1, “Fumigation methods and compositions” (Entek Corporation, priority 1983, dated 1984)
